Measurements reported in BindingDB's records for doi:10.1016/j.bmcl.2008.01.038 (Inspire Pharmaceuticals, 2008).
pIC50: −log10 of the molar value.

experiment: Antagonist activity at P2Y12 receptor assessed as platelet aggregation by washed platelet assay

| pIC50 | SMILES |
| --- | --- |
| 6.18 | CCNC(=O)Nc1ncnc2c1ncn2[C@@H]1O[C@H](CC(=O)O)[C@H]2O[C@H](/C=C/c3ccccc3)O[C@H]21 |
| 7.40 | CCNC(=O)Nc1ncnc2c1ncn2[C@@H]1O[C@H](COCc2ccccc2C(=O)O)[C@H]2O[C@H](/C=C/c3ccccc3)O[C@H]21 |
| 6.29 | CCNC(=O)Nc1ncnc2c1ncn2[C@@H]1O[C@H](CNCC(=O)O)[C@H]2O[C@H](/C=C/c3ccccc3)O[C@H]21 |
| 6.21 | CCNC(=O)Nc1ncnc2c1ncn2[C@@H]1O[C@H](COCc2cccc(C(=O)O)c2)[C@H]2O[C@H](/C=C/c3ccccc3)O[C@H]21 |
| 5.90 | CCNC(=O)Nc1ncnc2c1ncn2[C@@H]1O[C@H](CO)[C@H]2O[C@H](/C=C/c3ccccc3)O[C@H]21 |
| 5.42 | CCNC(=O)Nc1ncnc2c1ncn2[C@@H]1O[C@H](CSCC(=O)O)[C@H]2O[C@H](/C=C/c3ccccc3)O[C@H]21 |
| 5.59 | CCNC(=O)Nc1ncnc2c1ncn2[C@@H]1O[C@H](CNCc2ccccc2F)[C@H]2O[C@H](/C=C/c3ccccc3)O[C@H]21 |
| 5.53 | CCNC(=O)Nc1ncnc2c1ncn2[C@@H]1O[C@H](CNC(=O)CO)[C@H]2O[C@H](/C=C/c3ccccc3)O[C@H]21 |
| 5.00 | CCNC(=O)Nc1ncnc2c1ncn2[C@@H]1O[C@H](CSCC(O)CO)[C@H]2O[C@H](/C=C/c3ccccc3)O[C@H]21 (stereo partly specified) |
| 6.24 | CCNC(=O)Nc1ncnc2c1ncn2[C@@H]1O[C@H](CN(CC2CC2C(=O)O)CC2CC2C(=O)O)[C@H]2O[C@H](/C=C/c3ccccc3)O[C@H]21 (stereo partly specified) |
| 5.57 | CCNC(=O)Nc1ncnc2c1ncn2[C@@H]1O[C@H](CNCC2CC2C(=O)O)[C@H]2O[C@H](/C=C/c3ccccc3)O[C@H]21 (stereo partly specified) |
| 5.61 | CCNC(=O)Nc1ncnc2c1ncn2[C@@H]1O[C@H](CS(=O)(=O)CC(=O)O)[C@H]2O[C@H](/C=C/c3ccccc3)O[C@H]21 |
| 6.31 | CCNC(=O)Nc1ncnc2c1ncn2[C@@H]1O[C@H](CCC(=O)O)[C@H]2O[C@H](/C=C/c3ccccc3)O[C@H]21 |
| 6.70 | CCNC(=O)Nc1ncnc2c1ncn2[C@@H]1O[C@H](C(=O)O)[C@H]2O[C@H](/C=C/c3ccccc3)O[C@H]21 |
| 5.88 | CCNC(=O)Nc1ncnc2c1ncn2[C@@H]1O[C@H](COCc2ccc(C(=O)O)cc2)[C@H]2O[C@H](/C=C/c3ccccc3)O[C@H]21 |
| 5.65 | CCNC(=O)Nc1ncnc2c1ncn2[C@@H]1O[C@H](CNC(=O)c2cccs2)[C@H]2O[C@H](/C=C/c3ccccc3)O[C@H]21 |
| 6.61 | CCNC(=O)Nc1ncnc2c1ncn2[C@@H]1O[C@H](COCC(=O)O)[C@H]2O[C@H](/C=C/c3ccccc3)O[C@H]21 |
| 5.33 | CCNC(=O)Nc1ncnc2c1ncn2[C@@H]1O[C@H](CN)[C@H]2O[C@H](/C=C/c3ccccc3)O[C@H]21 |
| 5.31 | CCNC(=O)Nc1ncnc2c1ncn2[C@@H]1O[C@H](CNC(=O)c2ccco2)[C@H]2O[C@H](/C=C/c3ccccc3)O[C@H]21 |
| 5.60 | CCNC(=O)Nc1ncnc2c1ncn2[C@@H]1O[C@H](CS(=O)(=O)CC(C)O)[C@H]2O[C@H](/C=C/c3ccccc3)O[C@H]21 (stereo partly specified) |
| 5.36 | CCNC(=O)Nc1ncnc2c1ncn2[C@@H]1O[C@H](CNCC2CC2C(=O)OCC)[C@H]2O[C@H](/C=C/c3ccccc3)O[C@H]21 (stereo partly specified) |
